# From US20110207729A1, “BICYCLIC ACYLGUANIDINE DERIVATIVE” (ASTELLAS PHARMA INC., priority 2007, published 2011)
# Counter-ions that a name gives are not always drawn.
# Biological target: T1, human 5-HT5A receptor (Homo sapiens, UniProt P47898)
# T1 construct: expressed in transfected cells; membrane preparation
# Experiment: Test on a human 5-HT5A receptor binding inhibition ([3H]5-CT)
# Details: membrane from HEK293 cells expressing human 5-HT5A receptor; Ki calculated from IC50 and Kd 4.95 nM
# Procedure: Acquisition of HEK293 cells for forced expressions of a human 5-HT5A receptor
# The ORF (open reading frame; protein coding region) of a human 5-HT5A receptor (Genbank AF498985) was cloned from a human hippocampus cDNA library, and then inserted into a pCR2.1 vector (Invitrogen), and Escherichia coli containing the plasmid was cultured in a large amount. Next, the full-length cDNA sequence of the human 5-HT5A receptor was analyzed, and recombined into a pcDNA3.1 vector (Invitrogen) as an expression vector and cultured in a large amount. HEK293 established cells (ATCC) derived from the human fetal kidney were seeded, the expression plasmid (1 μg) obtained above were added thereto with LIPOFECTAMINE 2000 (Invitrogen; 2 μl), the gene was transfected into HEK293 cells, and the expression cells were screened with a drug-resistant marker, Geneticin (G418 sulfate 500 μg/ml; Kanto Chemical Co., Inc.). Thus prepared recombinant cells which express the gene were cultured in a medium containing D-MEM (Dulbecco's modified eagle medium, Sigma), 10% FCS (Fetal calf serum: fetal bovine serum), 1% Pc./Sm (Penicillin/Streptomycin, Invitrogen), and 500 μg/ml G418 for 3 days. These experimental operations follow an manual for gene operation experiment and an instruction appended in a reagent, and the like, such as a known method (Sambrook, J. et al, Molecular Cloning—A Laboratory Manual”, Cold Spring Harabor laboratory, NY, 1989).
# (1) Preparation of a Membrane from HEK293 Cells for Forced Expressions of a Human 5-HT5A Receptor
# HEK293 cells for forced expressions of a human 5-HT5A receptor were cultured in a F500 plate, and scraped with a scraper. After centrifugation, a precipitate was collected, and an incubation buffer (50 mM Tris (HCl) (pH 7.4), 10 mM MgSO4, and 0.5 mM EDTA (ethylenediamine tetraacetic acid)) were added thereto. After homogenization, it was further centrifuged, and the precipitate was added with the incubation buffer, followed by thoroughly suspending. This operation was repeated, and a protein concentration was measured, thereby completing the preparation of a membrane.
# (2) Test on a Human 5-HT5A Receptor Binding Inhibition
# A solution of a compound to be tested and 100 μM 5-CT (5-carboxamidetriptamine) in DMSO was added to a 96-well plate at 2 μl/well, and suspended in an incubation buffer, and a membrane from HEK293 cells for forced expressions of a human 5-HT5A receptor prepared at 200 μg/ml was added at 100 μl/well. After incubation at room temperature for 15 minutes, a [^3H]5-CT solution (2 nM [^3H]5-CT, incubation buffer) was added thereto at 100 μl/well.
# Separately, 100 μl of the solution was distributed into a liquid scintillation vial, and 2 ml of Aquasol II (registered trademark) was added thereto, followed by stirring. Then, a radioactivity was measured by a liquid scintillation counter. It was incubated at 37° C. for 60 minutes. The reaction mixture was sucked into 96-well GF/C filter plate that had been pre-treated with 0.2% polyethyleneimine, and washed six times with an ice-cooled, 50 mM Tris (pH 7.5) buffer. The GF/C filter plate was dried.
# Microscint TMPS (registered trademark) was added thereto at 40 μl/well. A radioactivity remaining on the GF/C filter plate was measured by a top counter.
# The [^3H]5-CT binding inhibiting activity by the compound to be tested in each experiment was determined as an IC50 value with a radioactivity upon addition of DMSO alone being 0% inhibition, and a radioactivity upon addition of 1 μM 5-CT being 100% inhibition. Separately, a Ki value was calculated from the Kd value of the [^3H]5-CT determined from Scatchard analysis, by the following equation.
# Ki=IC50(1+Concentration of ligands added/Kd(4.95 nM))
# T1 sequence (P47898 whole entry): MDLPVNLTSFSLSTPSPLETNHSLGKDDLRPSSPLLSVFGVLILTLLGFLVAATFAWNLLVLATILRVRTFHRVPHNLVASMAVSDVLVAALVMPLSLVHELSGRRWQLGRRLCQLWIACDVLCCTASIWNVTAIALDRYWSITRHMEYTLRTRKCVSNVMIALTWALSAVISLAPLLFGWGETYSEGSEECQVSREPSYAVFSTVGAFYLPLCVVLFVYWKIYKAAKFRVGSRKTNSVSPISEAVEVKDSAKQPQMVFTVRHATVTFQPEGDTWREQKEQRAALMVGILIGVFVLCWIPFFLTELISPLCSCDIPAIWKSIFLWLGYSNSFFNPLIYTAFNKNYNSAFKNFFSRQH
row,Compound,Ki [nM]
1,CC1=C(c2cc(F)c(F)cc2F)c2cc(C(=O)N=C(N)N)ccc2CC1 [Example 2-143],0.3 to 3
2,CC1=C(c2ccc(Cl)cc2Cl)c2cc(C(=O)N=C(N)N)ccc2CC1 [Example 2-144],0.3 to 3
3,NC(N)=NC(=O)c1ccc2c(c1)C(c1cncc(Cl)c1)=CCC2 [Example 2-150],30 to 300
4,NC(N)=NC(=O)c1ccc2c(c1)C(c1cncs1)=CCC2 [Example 2-157],3 to 30
5,NC(N)=NC(=O)c1ccc2c(c1)C(c1ccncc1F)=CCC2 [Example 2-158],0.3 to 3
6,CC1=C(c2ccc(F)cc2C)c2cc(C(=O)N=C(N)N)ccc2CC1 [Example 2-163],0.3 to 3
7,CC1=C(c2ccc(C)cc2C)c2cc(C(=O)N=C(N)N)ccc2CC1 [Example 2-164],0.3 to 3
8,COc1ccc(C2=CCCc3ccc(C(=O)N=C(N)N)cc32)c(C(F)(F)F)c1 [Example 2-165],3 to 30
9,COc1cc(C#N)ccc1C1=C(F)CCc2ccc(C(=O)N=C(N)N)cc21 [Example 2-166],0.3 to 3
10,CC(C)n1cc(C2=CCCc3ccc(C(=O)N=C(N)N)cc32)cn1 [Example 2-167],30 to 300
11,NC(N)=NC(=O)c1ccc2c(c1)C(c1cccc(F)c1Cl)=CCC2 [Example 2-168],0.3 to 3
12,NC(N)=NC(=O)c1ccc2c(c1)C(c1cc(F)ccc1Cl)=CCC2 [Example 2-169],3 to 30
13,COc1ccc(C2=C(C)CCc3ccc(C(=O)N=C(N)N)cc32)c(C)c1 [Example 2-170],0.3 to 3
14,NC(N)=NC(=O)c1ccc2c(c1)C(c1ccc3nccn3c1)=CCC2 [Example 2-171],3 to 30
15,COc1ccc(C2=CCCc3ccc(C(=O)N=C(N)N)cc32)c(OC)n1 [Example 2-173],3 to 30
16,NC(N)=NC(=O)c1ccc2c(c1)C(c1ccnc(Cl)c1)=CCC2 [Example 2-174],3 to 30
17,N#Cc1ccc(F)cc1C1=CCCc2ccc(C(=O)N=C(N)N)cc21 [Example 2-175],30 to 300
18,NC(N)=NC(=O)c1ccc2c(c1)C(c1cccnc1Cl)=CCC2 [Example 2-176],3 to 30
19,CC1=C(c2ccc(F)cc2F)c2cc(C(=O)N=C(N)N)ccc2CC1 [Example 2-177],0.3 to 3
20,COc1cc(F)c(C2=C(C)CCc3ccc(C(=O)N=C(N)N)cc32)c(F)c1 [Example 2-178],0.3 to 3
21,COc1cc(F)cc(F)c1C1=CCCc2ccc(C(=O)N=C(N)N)cc21 [Example 2-179],3 to 30
22,N#Cc1cccc(F)c1C1=CCCc2ccc(C(=O)N=C(N)N)cc21 [Example 2-180],3 to 30
23,COc1cccc(C2=CCCc3ccc(C(=O)N=C(N)N)cc32)c1C#N [Example 2-181],30 to 300
24,N#Cc1cc(Cl)ccc1C1=CCCc2ccc(C(=O)N=C(N)N)cc21 [Example 2-185],30 to 300
25,NC(N)=NC(=O)c1ccc2c(c1)C(c1cccc3c1OCCO3)=CCC2 [Example 2-189],30 to 300
26,NC(N)=NC(=O)c1ccc2c(c1)C(c1c(Cl)cncc1Cl)=CCC2 [Example 2-190],3 to 30
27,Cn1cc(C2=CCCc3ccc(C(=O)N=C(N)N)cc32)ccc1=O [Example 2-191],30 to 300

# The remaining lines, values ahead:
row,Ki [nM],Compound
1,30 to 300,"NC(N)=NC(=O)c1ccc2c(c1)C(N1CCNCC1)CCC2 (centres unmarked) [Example 3-01, N-(diaminomethylene)-8-piperazin-1-yl-5,6,7,8-tetrahydronaphthalene-2-carboxamide trihydrochloride]"
2,3 to 30,NC(N)=NC(=O)c1ccc2c(c1)C(c1ccccc1)CCC2 (centres unmarked) [Example 3-02]
3,30 to 300,NC(N)=NC(=O)c1ccc2c(c1)C(c1ccccc1)=CCCC2 [Example 3-03]
4,30 to 300,N#Cc1ccc(C2=CCCCc3ccc(C(=O)N=C(N)N)cc32)cc1 [Example 3-04]
5,3 to 30,NC(N)=NC(=O)c1ccc2c(c1)C(c1c(F)cc(F)cc1F)=CCCC2 [Example 3-05]
6,30 to 300,COc1ccccc1C1=CCCCc2ccc(C(=O)N=C(N)N)cc21 [Example 3-06]
7,3 to 30,NC(N)=NC(=O)c1ccc2scc(-c3ccccc3)c2c1 [Example 3-07]
8,0.3 to 3,COc1ccccc1-c1csc2ccc(C(=O)N=C(N)N)cc12 [Example 3-08]
9,30 to 300,NC(N)=NC(=O)c1ccc2occ(-c3ccccc3)c2c1 [Example 3-09]
10,3 to 30,NC(N)=NC(=O)c1ccc2c(c1)C(c1ccccc1)=CCCO2 [Example 3-10]
11,3 to 30,COc1ccccc1C1=CCCOc2ccc(C(=O)N=C(N)N)cc21 [Example 3-11]
12,0.3 to 3,NC(N)=NC(=O)c1ccc2c(c1)C(c1c(F)cc(F)cc1F)=CCCO2 [Example 3-12]
13,3 to 30,N#Cc1ccc(C2=CCCOc3ccc(C(=O)N=C(N)N)cc32)cc1 [Example 3-13]
14,0.3 to 3,NC(N)=NC(=O)c1ccc2scc(-c3c(F)cc(F)cc3F)c2c1 [Example 3-14]
15,3 to 30,Cc1ccc(C2=CCSc3ccc(C(=O)N=C(N)N)cc32)c(F)c1 [Example 3-15]
16,0.3 to 3,NC(N)=NC(=O)c1ccc2c(c1)C(c1c(F)cc(F)cc1F)=CCS2 [Example 3-16]
17,3 to 30,N#Cc1ccc(C2=CCSc3ccc(C(=O)N=C(N)N)cc32)cc1 [Example 3-17]
18,30 to 300,COc1ccccc1C1=CCSc2ccc(C(=O)N=C(N)N)cc21 [Example 3-18]

row,Ki [nM],Compound
1,3 to 30,N#Cc1ccccc1C1=CCSc2ccc(C(=O)N=C(N)N)cc21 [Example 3-19]
2,3 to 30,COc1ccc(-c2csc3ccc(C(=O)N=C(N)N)cc23)c(OC)c1 [Example 3-20]
3,3 to 30,COc1ccc(-c2csc3ccc(C(=O)N=C(N)N)cc23)cc1 [Example 3-24]
4,0.3 to 3,NC(N)=NC(=O)c1ccc2scc(-c3ccc(F)cc3)c2c1 [Example 3-25]
5,0.3 to 3,NC(N)=NC(=O)c1ccc2scc(-c3ccccc3F)c2c1 [Example 3-26]
6,3 to 30,COc1c(F)cccc1-c1csc2ccc(C(=O)N=C(N)N)cc12 [Example 3-27]
7,3 to 30,COc1ccc(F)cc1-c1csc2ccc(C(=O)N=C(N)N)cc12 [Example 3-28]
8,0.3 to 3,NC(N)=NC(=O)c1ccc2scc(-c3ccccc3O)c2c1 [Example 3-29]
9,0.3 to 3,NC(N)=NC(=O)c1ccc2scc(-c3ccc(F)cc3F)c2c1 [Example 3-30]
10,3 to 30,NC(N)=NC(=O)c1ccc2c(c1)C(c1c(F)cc(F)cc1F)CCO2 (centres unmarked) [Example 3-31]
11,30 to 300,NC(N)=NC(=O)c1ccc2scc(-c3cccnc3)c2c1 [Example 3-32]
12,0.3 to 3,COc1ccccc1-c1c(C)sc2ccc(C(=O)N=C(N)N)cc12 [Example 3-33]
13,30 to 300,CC1(C)CCC(c2c(F)cc(F)cc2F)c2cc(C(=O)N=C(N)N)ccc21 (centres unmarked) [Example 3-34]
14,0.3 to 3,Cc1sc2ccc(C(=O)N=C(N)N)cc2c1-c1ccccc1F [Example 3-35]
15,30 to 300,NC(N)=NC(=O)c1ccc2scc(-c3ccncc3)c2c1 [Example 3-37]
16,3 to 30,N#Cc1ccccc1-c1csc2ccc(C(=O)N=C(N)N)cc12 [Example 3-38]
17,3 to 30,COc1ccccc1-c1c(C#N)sc2ccc(C(=O)N=C(N)N)cc12 [Example 3-39]
